Assay results from article PMC10046369, “Low-Affinity/High-Selectivity Dopamine Transport Inhibition Sufficient to Rescue Cognitive Functions in the Aging Rat” (Biomolecules, 2023).

Columns and labels:
MC2 (h) = target: T1, MC2 (h) (Homo sapiens, UniProt Q01718); test: cell-based; parameters: functional GPCR antagonist screen (Eurofins Cerep), percent inhibition of control agonist response; settings: antagonist effect, against control agonist; read-out: % Inhibition of Control Agonist Response, Mean
T1 construct: gene MC2R
T1 sequence (Q01718 whole entry): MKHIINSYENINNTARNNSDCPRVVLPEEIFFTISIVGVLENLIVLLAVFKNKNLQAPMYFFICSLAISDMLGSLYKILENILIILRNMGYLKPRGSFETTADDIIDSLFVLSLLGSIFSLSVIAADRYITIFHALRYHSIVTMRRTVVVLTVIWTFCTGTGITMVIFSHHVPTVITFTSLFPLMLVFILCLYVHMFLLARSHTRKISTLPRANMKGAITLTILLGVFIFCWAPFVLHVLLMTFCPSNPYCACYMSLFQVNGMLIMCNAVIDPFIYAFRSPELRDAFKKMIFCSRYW

NTS1 (NT1) (h) = target: T2, NTS1 (NT1) (h) (Homo sapiens, UniProt P30989); test: cell-based; parameters: functional GPCR antagonist screen (Eurofins Cerep), percent inhibition of control agonist response; settings: antagonist effect, against control agonist; read-out: % Inhibition of Control Agonist Response, Mean
T2 construct: gene NTSR1
T2 sequence (P30989 whole entry): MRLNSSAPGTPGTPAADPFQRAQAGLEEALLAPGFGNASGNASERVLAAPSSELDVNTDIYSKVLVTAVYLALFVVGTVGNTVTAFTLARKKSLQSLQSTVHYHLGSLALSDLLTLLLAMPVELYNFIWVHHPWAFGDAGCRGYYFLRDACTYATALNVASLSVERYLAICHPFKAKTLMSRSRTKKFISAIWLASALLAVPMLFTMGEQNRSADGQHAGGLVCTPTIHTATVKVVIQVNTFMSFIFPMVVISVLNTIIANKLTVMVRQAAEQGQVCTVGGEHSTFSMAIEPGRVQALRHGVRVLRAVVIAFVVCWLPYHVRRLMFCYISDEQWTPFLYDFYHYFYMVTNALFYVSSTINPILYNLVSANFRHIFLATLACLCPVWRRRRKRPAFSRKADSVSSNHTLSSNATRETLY

motilin (h) = target: T3, motilin (h) (Homo sapiens, UniProt O43193); test: cell-based; parameters: functional GPCR antagonist screen (Eurofins Cerep), percent inhibition of control agonist response; settings: antagonist effect, against control agonist; read-out: % Inhibition of Control Agonist Response, Mean
T3 construct: gene MLNR

M5 (h) = target: T4, M5 (h) (Homo sapiens, UniProt P08912); test: cell-based; parameters: functional GPCR antagonist screen (Eurofins Cerep), percent inhibition of control agonist response; settings: antagonist effect, against control agonist; read-out: % Inhibition of Control Agonist Response, Mean
T4 construct: gene CHRM5

NPBW1 (h) = target: T5, NPBW1 (h) (Homo sapiens, UniProt P48145); test: cell-based; parameters: functional GPCR antagonist screen (Eurofins Cerep), percent inhibition of control agonist response; settings: antagonist effect, against control agonist; read-out: % Inhibition of Control Agonist Response, Mean
T5 construct: gene NPBWR1

OX1 (h) = target: T6, OX1 (h) (Homo sapiens, UniProt O43613); test: cell-based; parameters: functional GPCR antagonist screen (Eurofins Cerep), percent inhibition of control agonist response; settings: antagonist effect, against control agonist; read-out: % Inhibition of Control Agonist Response, Mean
T6 construct: gene HCRTR1

FP (h) = target: T7, FP (h) (Homo sapiens, UniProt P43088); test: cell-based; parameters: functional GPCR antagonist screen (Eurofins Cerep), percent inhibition of control agonist response; settings: antagonist effect, against control agonist; read-out: % Inhibition of Control Agonist Response, Mean
T7 construct: gene PTGFR

C3aR = target: T8, C3aR (Homo sapiens, UniProt Q16581); test: cell-based; parameters: Eurofins Cerep functional GPCR screen, antagonist mode, inhibition of control agonist response; settings: read-out: % Inhibition of Control Agonist Response, Mean
T8 construct: gene C3AR1
T8 sequence (Q16581 whole entry): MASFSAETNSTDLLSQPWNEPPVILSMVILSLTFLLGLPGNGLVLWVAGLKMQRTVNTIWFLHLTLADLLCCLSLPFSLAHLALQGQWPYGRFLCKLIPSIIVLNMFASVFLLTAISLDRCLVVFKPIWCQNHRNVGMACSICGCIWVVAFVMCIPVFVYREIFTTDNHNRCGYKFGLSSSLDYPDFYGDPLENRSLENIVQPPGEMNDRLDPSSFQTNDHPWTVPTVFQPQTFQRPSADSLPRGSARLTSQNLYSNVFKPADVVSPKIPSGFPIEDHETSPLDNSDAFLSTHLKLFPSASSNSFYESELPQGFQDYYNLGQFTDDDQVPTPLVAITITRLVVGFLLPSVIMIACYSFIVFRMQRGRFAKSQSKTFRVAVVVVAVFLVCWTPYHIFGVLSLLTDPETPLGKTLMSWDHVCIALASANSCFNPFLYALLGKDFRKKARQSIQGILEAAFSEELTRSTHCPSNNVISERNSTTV

CXCR4 = CXCR4 (Homo sapiens, UniProt P61073); test: cell-based; parameters: Eurofins Cerep functional GPCR screen, antagonist mode, inhibition of control agonist response; settings: read-out: % Inhibition of Control Agonist Response, Mean
CXCR4, sequence (P61073 whole entry): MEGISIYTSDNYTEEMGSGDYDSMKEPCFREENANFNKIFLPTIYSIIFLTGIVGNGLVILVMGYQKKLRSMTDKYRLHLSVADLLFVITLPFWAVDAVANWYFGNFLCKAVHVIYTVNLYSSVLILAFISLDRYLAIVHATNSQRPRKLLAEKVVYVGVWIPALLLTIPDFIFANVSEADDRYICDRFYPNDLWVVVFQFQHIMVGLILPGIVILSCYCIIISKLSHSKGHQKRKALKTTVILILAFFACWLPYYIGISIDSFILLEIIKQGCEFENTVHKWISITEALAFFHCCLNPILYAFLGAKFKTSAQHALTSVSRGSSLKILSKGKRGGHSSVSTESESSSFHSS

B2 = target: T9, B2 (Homo sapiens, UniProt P30411); test: cell-based; parameters: Eurofins Cerep functional GPCR screen, antagonist mode, inhibition of control agonist response; settings: read-out: % Inhibition of Control Agonist Response, Mean
T9 construct: gene BDKRB2
T9 sequence (P30411 whole entry): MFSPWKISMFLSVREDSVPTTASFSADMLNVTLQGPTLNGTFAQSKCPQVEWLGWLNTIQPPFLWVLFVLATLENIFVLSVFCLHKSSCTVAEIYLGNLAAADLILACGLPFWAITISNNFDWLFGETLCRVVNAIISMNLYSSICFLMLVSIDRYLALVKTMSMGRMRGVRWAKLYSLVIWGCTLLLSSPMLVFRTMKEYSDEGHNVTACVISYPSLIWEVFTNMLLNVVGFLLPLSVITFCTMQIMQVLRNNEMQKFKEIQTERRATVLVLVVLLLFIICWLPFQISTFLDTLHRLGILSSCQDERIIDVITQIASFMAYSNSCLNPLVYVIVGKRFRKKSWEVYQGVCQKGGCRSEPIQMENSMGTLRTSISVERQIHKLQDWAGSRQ

ETA = target: T10, ETA (Homo sapiens, UniProt P25101); test: cell-based; parameters: Eurofins Cerep functional GPCR screen, antagonist mode, inhibition of control agonist response; settings: read-out: % Inhibition of Control Agonist Response, Mean
T10 construct: gene EDNRA
T10 sequence (P25101 whole entry): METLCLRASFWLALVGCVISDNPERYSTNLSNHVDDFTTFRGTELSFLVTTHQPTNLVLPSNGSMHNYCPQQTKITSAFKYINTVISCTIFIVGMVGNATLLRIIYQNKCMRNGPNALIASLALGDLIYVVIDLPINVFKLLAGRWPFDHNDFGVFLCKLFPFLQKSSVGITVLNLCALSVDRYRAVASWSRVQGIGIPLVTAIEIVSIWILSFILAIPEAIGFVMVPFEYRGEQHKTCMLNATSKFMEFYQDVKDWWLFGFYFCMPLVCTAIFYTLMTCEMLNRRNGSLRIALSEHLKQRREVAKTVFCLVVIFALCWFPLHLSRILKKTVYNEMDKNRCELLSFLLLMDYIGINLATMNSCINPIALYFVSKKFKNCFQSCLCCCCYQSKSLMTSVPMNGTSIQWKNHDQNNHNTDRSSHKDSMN

APJ (apelin) = target: T11, APJ (apelin) (Homo sapiens, UniProt P35414); test: cell-based; parameters: Eurofins Cerep functional GPCR screen, antagonist mode, inhibition of control agonist response; settings: read-out: % Inhibition of Control Agonist Response, Mean
T11 construct: gene APLNR

H4 = target: T12, H4 (Homo sapiens, UniProt Q9H3N8); test: cell-based; parameters: Eurofins Cerep functional GPCR screen, antagonist mode, inhibition of control agonist response; settings: read-out: % Inhibition of Control Agonist Response, Mean
T12 construct: gene HRH4

ETB = target: T13, ETB (Homo sapiens, UniProt P24530); test: cell-based; parameters: Eurofins Cerep functional GPCR screen, antagonist mode, inhibition of control agonist response; settings: read-out: % Inhibition of Control Agonist Response, Mean
T13 construct: gene EDNRB

secretin = target: T14, secretin (Homo sapiens, UniProt P47872); test: cell-based; parameters: Eurofins Cerep functional GPCR screen, antagonist mode, inhibition of control agonist response; settings: read-out: % Inhibition of Control Agonist Response, Mean
T14 construct: gene SCTR

TSH = target: T15, TSH (Homo sapiens, UniProt P16473); test: cell-based; parameters: Eurofins Cerep functional GPCR screen, antagonist mode, inhibition of control agonist response; settings: read-out: % Inhibition of Control Agonist Response, Mean
T15 construct: gene TSHR

CXCR2 = CXCR2 (Homo sapiens, UniProt P25025); test: cell-based; parameters: Eurofins Cerep functional GPCR screen, antagonist mode, inhibition of control agonist response; settings: read-out: % Inhibition of Control Agonist Response, Mean
CXCR2, sequence (P25025 whole entry): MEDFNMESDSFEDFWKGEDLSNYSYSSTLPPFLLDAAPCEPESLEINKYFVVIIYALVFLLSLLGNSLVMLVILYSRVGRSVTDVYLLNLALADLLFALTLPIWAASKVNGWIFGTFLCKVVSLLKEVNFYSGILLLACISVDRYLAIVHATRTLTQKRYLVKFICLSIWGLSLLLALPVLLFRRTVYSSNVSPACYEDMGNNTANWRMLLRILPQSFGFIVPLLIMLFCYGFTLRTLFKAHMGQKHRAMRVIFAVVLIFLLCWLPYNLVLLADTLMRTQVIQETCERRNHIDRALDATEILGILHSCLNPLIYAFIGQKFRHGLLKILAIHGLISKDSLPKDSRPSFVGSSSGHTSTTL

GPR109A = target: T16, GPR109A (Homo sapiens, UniProt Q8TDS4); test: cell-based; parameters: Eurofins Cerep functional GPCR screen, antagonist mode, inhibition of control agonist response; settings: read-out: % Inhibition of Control Agonist Response, Mean
T16 construct: gene HCAR2

CCR1 = CCR1 (Homo sapiens, UniProt P32246); test: cell-based; parameters: Eurofins Cerep functional GPCR screen, antagonist mode, inhibition of control agonist response; settings: read-out: % Inhibition of Control Agonist Response, Mean
α1B = target: T17, α1B (Homo sapiens, UniProt P35368); test: cell-based; parameters: Eurofins Cerep functional GPCR screen, antagonist mode, inhibition of control agonist response; settings: read-out: % Inhibition of Control Agonist Response, Mean
T17 construct: gene ADRA1B
T17 sequence (P35368 whole entry): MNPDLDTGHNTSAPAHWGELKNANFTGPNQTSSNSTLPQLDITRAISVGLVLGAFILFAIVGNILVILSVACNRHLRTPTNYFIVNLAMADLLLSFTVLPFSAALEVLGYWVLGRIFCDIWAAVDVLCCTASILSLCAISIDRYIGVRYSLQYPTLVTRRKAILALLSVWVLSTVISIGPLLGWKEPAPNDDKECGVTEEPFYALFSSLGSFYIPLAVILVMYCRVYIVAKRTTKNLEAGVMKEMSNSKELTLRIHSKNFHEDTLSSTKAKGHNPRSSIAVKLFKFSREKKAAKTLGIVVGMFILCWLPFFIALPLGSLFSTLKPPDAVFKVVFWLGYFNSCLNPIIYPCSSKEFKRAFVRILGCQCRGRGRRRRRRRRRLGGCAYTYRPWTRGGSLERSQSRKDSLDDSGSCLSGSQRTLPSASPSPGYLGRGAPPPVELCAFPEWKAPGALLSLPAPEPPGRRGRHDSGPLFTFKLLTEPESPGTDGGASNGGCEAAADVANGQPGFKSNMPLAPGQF

CysLT1 (LTD4) = target: T18, CysLT1 (LTD4) (Homo sapiens, UniProt Q9Y271); test: cell-based; parameters: Eurofins Cerep functional GPCR screen, antagonist mode, inhibition of control agonist response; settings: read-out: % Inhibition of Control Agonist Response, Mean
T18 construct: gene CYSLTR1
T18 sequence (Q9Y271 whole entry): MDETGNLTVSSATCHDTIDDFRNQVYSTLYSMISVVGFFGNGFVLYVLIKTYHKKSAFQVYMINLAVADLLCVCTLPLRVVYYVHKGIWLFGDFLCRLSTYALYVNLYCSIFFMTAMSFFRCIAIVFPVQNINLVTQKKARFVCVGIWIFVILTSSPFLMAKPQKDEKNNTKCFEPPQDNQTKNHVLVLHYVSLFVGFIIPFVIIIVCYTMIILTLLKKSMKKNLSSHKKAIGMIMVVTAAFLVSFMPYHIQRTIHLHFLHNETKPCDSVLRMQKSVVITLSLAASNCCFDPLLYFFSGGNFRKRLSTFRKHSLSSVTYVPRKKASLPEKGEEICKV

β3 = target: T19, β3 (Homo sapiens, UniProt P13945); test: cell-based; parameters: Eurofins Cerep functional GPCR screen, antagonist mode, inhibition of control agonist response; settings: read-out: % Inhibition of Control Agonist Response, Mean
T19 construct: gene ADRB3
T19 sequence (P13945 whole entry): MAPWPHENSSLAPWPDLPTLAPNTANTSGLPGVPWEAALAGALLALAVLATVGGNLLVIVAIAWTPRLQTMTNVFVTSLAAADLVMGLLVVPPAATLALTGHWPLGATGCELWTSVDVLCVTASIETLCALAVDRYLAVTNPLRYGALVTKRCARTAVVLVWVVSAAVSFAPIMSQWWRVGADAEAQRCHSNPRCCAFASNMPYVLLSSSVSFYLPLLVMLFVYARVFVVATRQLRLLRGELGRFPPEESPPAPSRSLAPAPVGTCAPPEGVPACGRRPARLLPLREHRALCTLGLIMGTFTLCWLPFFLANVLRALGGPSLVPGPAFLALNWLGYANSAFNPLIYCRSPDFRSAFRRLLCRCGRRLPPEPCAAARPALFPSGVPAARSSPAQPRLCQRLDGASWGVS

D5 = target: T20, D5 (Homo sapiens, UniProt P21918); test: cell-based; parameters: Eurofins Cerep functional GPCR screen, antagonist mode, inhibition of control agonist response; settings: read-out: % Inhibition of Control Agonist Response, Mean
T20 construct: gene DRD5
T20 sequence (P21918 whole entry): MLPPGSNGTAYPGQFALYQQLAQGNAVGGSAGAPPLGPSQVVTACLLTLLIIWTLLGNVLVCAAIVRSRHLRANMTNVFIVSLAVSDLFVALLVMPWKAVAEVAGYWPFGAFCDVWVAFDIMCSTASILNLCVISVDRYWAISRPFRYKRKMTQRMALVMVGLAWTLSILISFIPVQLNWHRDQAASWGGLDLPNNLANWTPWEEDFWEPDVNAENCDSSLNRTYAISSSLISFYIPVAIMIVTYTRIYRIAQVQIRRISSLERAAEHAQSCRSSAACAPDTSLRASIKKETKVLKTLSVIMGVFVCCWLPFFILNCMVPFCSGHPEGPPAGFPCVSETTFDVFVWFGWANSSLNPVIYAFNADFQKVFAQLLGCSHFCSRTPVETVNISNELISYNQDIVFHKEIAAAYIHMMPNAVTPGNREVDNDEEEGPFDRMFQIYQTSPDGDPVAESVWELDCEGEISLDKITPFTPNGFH

A2B = target: T21, A2B (Homo sapiens, UniProt P29275); test: cell-based; parameters: Eurofins Cerep functional GPCR screen, antagonist mode, inhibition of control agonist response; settings: read-out: % Inhibition of Control Agonist Response, Mean
T21 construct: gene ADORA2B
T21 sequence (P29275 whole entry): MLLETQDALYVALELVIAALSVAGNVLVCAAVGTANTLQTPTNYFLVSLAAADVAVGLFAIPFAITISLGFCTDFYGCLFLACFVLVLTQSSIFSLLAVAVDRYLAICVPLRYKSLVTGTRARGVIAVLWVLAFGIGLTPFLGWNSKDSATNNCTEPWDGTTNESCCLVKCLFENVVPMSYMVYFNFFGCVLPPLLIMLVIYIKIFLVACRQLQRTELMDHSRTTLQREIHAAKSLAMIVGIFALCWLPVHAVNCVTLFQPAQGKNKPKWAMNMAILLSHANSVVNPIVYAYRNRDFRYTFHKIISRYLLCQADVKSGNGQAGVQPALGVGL

[1] = target: T22, human dopamine transporter (hDAT) (Homo sapiens, UniProt Q01959); test: radioligand competition binding ([3H]BTCP), hDAT expressed in CHO cells; type: cell-based
T22 construct: gene SLC6A3

## [O-][S@@+](Cc1cncs1)C(c1ccccc1)c1ccccc1 [S-CE-123, (S)-5-((Benzhydrylsulfinyl)Methyl)Thiazole]
MC2 (h)
  inhibition at 2.8 µM: 3.1%
NTS1 (NT1) (h)
  inhibition at 2.8 µM: -10%
Motilin (h)
  inhibition at 2.8 µM: -5.2%
M5 (h)
  inhibition at 2.8 µM: -5.9%
NPBW1 (h)
  inhibition at 2.8 µM: -1.9%
OX1 (h)
  inhibition at 2.8 µM: -14.5%
FP (h)
  inhibition at 2.8 µM: 6.7%
C3aR
  inhibition at 2.8 µM: 11.4%
CXCR4
  inhibition at 2.8 µM: -40.7%
B2
  inhibition at 2.8 µM: -32.1%
ETA
  inhibition at 2.8 µM: -0.5%
APJ (apelin)
  inhibition at 2.8 µM: 6.2%
H4
  inhibition at 2.8 µM: 3.4%
ETB
  inhibition at 2.8 µM: 1.5%
secretin
  inhibition at 2.8 µM: 17.6%
TSH
  inhibition at 2.8 µM: -6.1%
CXCR2
  inhibition at 2.8 µM: 3.8%
GPR109A
  inhibition at 2.8 µM: -11.6%
CCR1
  inhibition at 2.8 µM: -1.5%
α1B
  inhibition at 2.8 µM: -15.1%
CysLT1 (LTD4)
  inhibition at 2.8 µM: -12.9%
β3
  inhibition at 2.8 µM: 15.5%
D5
  inhibition at 2.8 µM: -10.8%
A2B
  inhibition at 2.8 µM: -11.8%
[1]
  Ki: 0.61 µM
